# US11497212B2, “Substituted thiophenyl uracils, salts thereof and the use thereof as herbicidal agents” (Syngenta Crop Protection AG, priority 2017, dated 2022)
# Tests used:
# Format in all cases: in vivo
# [1] = system: Avena fatua; assay: Herbicidal action post-emergence (greenhouse pot trial); conditions: scored visually after about 3 weeks vs untreated controls
# In short: (§1)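 Weed seeds sown in sandy loam were grown in a greenhouse for 2–3 weeks and treated at the one-leaf stage. WP or EC formulations, with 0.5% additive, were sprayed on green parts at a water rate of 600 L/ha and at 80 g/ha or lower. Efficacy was scored visually about 3 weeks later against untreated controls.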
# [2] = system: Stellaria media; assay: as above; conditions: scored visually after about 3 weeks vs untreated controls
# In short: as §1
# [3] = system: Lolium rigidum; assay: as above; conditions: scored visually after about 3 weeks vs untreated controls
# In short: as §1
# [4] = system: Echinochloa crus-galli; assay: as above; conditions: scored visually after about 3 weeks vs untreated controls
# In short: as §1
# [5] = system: Veronica persica; assay: as above
# In short: as §1
# [6] = system: Hordeum murinum; assay: as above; conditions: scored visually after about 3 weeks vs untreated controls
# In short: as §1
# [7] = system: Amaranthus retroflexus; assay: as above; conditions: scored visually after about 3 weeks vs untreated controls
# In short: as §1
# [8] = system: Abutilon theophrasti; assay: as above; conditions: scored visually after about 3 weeks vs untreated controls
# In short: as §1
# [9] = system: Matricaria inodora; assay: as above; conditions: scored visually after about 3 weeks vs untreated controls
# In short: as §1
# [10] = system: Polygonum convolvulus; assay: as above; conditions: scored visually after about 3 weeks vs untreated controls
# In short: as §1
# [11] = system: Pharbitis purpurea; assay: as above
# In short: as §1
# [12] = system: Digitaria sanguinalis; assay: as above; conditions: application rate 20 g/ha
# In short: as §1
# [13] = system: Setaria viridis; assay: as above; conditions: scored visually after about 3 weeks vs untreated controls
# In short: as §1
# [14] = system: Oryza sativa; assay: Crop compatibility post-emergence (greenhouse pot trial); conditions: application rate 5 g/ha
# In short: (§2)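 Compatibility is expressed as visually scored percent injury, where 0% means no difference from untreated controls and 100% means dead plants, assessed about 3 weeks after a foliar spray at 600 L/ha with 0.5% additive on one-leaf-stage pot plants in sandy loam.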
# [15] = system: Zea mays; assay: as above
# In short: as §2
# [16] = system: Alopecurus myosuroides; assay: Herbicidal action post-emergence (greenhouse pot trial); conditions: scored visually after about 3 weeks vs untreated controls
# In short: as §1
# [17] = system: Viola tricolor; assay: as above
# In short: as §1
# [18] = system: Triticum aestivum; assay: Crop compatibility post-emergence (greenhouse pot trial)
# In short: as §2
# [19] = system: Glycine max; assay: as above
# In short: as §2
# [20] = system: Zea mays; assay: Crop compatibility pre-emergence (greenhouse pot trial); conditions: application rate 80 g/ha, effect vs untreated controls
# In short: (§3)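 After soil-surface application of each compound to freshly sown pots (aqueous spray, 600 L/ha, 0.5% additive), plants grew under greenhouse conditions. Around 3 weeks later, injury was estimated visually on a 0–100% scale against controls.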
# [21] = system: Glycine max; assay: as above; conditions: application rate 80 g/ha, effect vs untreated controls
# In short: as §3
# [22] = system: Avena fatua; assay: Herbicidal action pre-emergence (greenhouse pot trial); conditions: application rate 320 g/ha
# In short: (§4)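 Pre-emergence: WP or EC formulations sprayed onto covering soil over sown seeds as aqueous suspension/emulsion with 0.5% additive, 600 L/ha water, at 320 g/ha or lower. Visual percent efficacy versus untreated controls after about 3 weeks in greenhouse (100% = plants dead).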
# [23] = system: Stellaria media; assay: as above; conditions: application rate 320 g/ha, scored after about 3 weeks
# In short: as §4
# [24] = system: Alopecurus myosuroides; assay: as above; conditions: application rate 320 g/ha, scored after about 3 weeks
# In short: as §4
# [25] = system: Lolium rigidum; assay: as above; conditions: application rate 320 g/ha
# In short: as §4
# [26] = system: Echinochloa crus-galli; assay: as above; conditions: application rate 320 g/ha, scored after about 3 weeks
# In short: as §4
# [27] = system: Veronica persica; assay: as above; conditions: application rate 320 g/ha
# In short: as §4
# [28] = system: Hordeum murinum; assay: as above; conditions: application rate 320 g/ha
# In short: as §4
# [29] = system: Amaranthus retroflexus; assay: as above; conditions: application rate 320 g/ha, scored after about 3 weeks
# In short: as §4
# [30] = system: Viola tricolor; assay: as above; conditions: application rate 320 g/ha, scored after about 3 weeks
# In short: as §4
# [31] = system: Abutilon theophrasti; assay: as above; conditions: application rate 320 g/ha, scored after about 3 weeks
# In short: as §4
# [32] = system: Cyperus esculentus; assay: as above; conditions: application rate 320 g/ha
# In short: as §4
# [33] = system: Matricaria inodora; assay: as above; conditions: application rate 320 g/ha, scored after about 3 weeks
# In short: as §4
# [34] = system: Pharbitis purpurea; assay: as above; conditions: application rate 320 g/ha
# In short: as §4
# [35] = system: Setaria viridis; assay: as above; conditions: application rate 320 g/ha, scored after about 3 weeks
# In short: as §4
structure (smiles),measurement,setting,value
CC(Sc1cc(-n2c(=O)cc(C(F)(F)F)n(C)c2=O)c(F)cc1Cl)C(=O)OC1CCOC1 (stereo not shown) [I.1-121],Avena fatua (Efficacy in %),[1]; application rate 20 g/ha,80%
same,Stellaria media (Efficacy in %),[2]; application rate 20 g/ha,100%
same,Lolium rigidum (Efficacy in %),[3]; application rate 20 g/ha,80%
same,Echinochloa crus-galli (Efficacy in %),[4]; application rate 20 g/ha,100%
same,Veronica persica (Efficacy in %),[5]; application rate 20 g/ha,100%
same,Hordeum murinum (Efficacy in %),[6]; application rate 20 g/ha,80%
same,Amaranthus retroflexus (Efficacy in %),[7]; application rate 20 g/ha,100%
same,Abutilon theophrasti (Efficacy in %),[8]; application rate 20 g/ha,100%
same,Matricaria inodora (Efficacy in %),[9]; application rate 20 g/ha,100%
same,Polygonum convolvulus (Efficacy in %),[10]; application rate 20 g/ha,100%
same,Pharbitis purpurea (Efficacy in %),[11]; application rate 20 g/ha,100%
same,Digitaria sanguinalis (Efficacy in %),[12],100%
same,Setaria viridis (Efficacy in %),[13]; application rate 20 g/ha,100%
CC(Sc1cc(-n2c(=O)cc(C(F)(F)F)n(C)c2=O)c(F)cc1Cl)C(=O)OC1COC1 (stereo not shown) [I.1-115],Oryza sativa (Efficacy in %),[14],0%
same,Zea mays (Efficacy in %),[15]; application rate 5 g/ha,20%
same,Avena fatua (Efficacy in %),[1]; application rate 20 g/ha,80%
same,Stellaria media (Efficacy in %),[2]; application rate 20 g/ha,100%
same,Alopecurus myosuroides (Efficacy in %),[16]; application rate 20 g/ha,80%
same,Veronica persica (Efficacy in %),[5]; application rate 20 g/ha,100%
same,Hordeum murinum (Efficacy in %),[6]; application rate 20 g/ha,100%
same,Amaranthus retroflexus (Efficacy in %),[7]; application rate 20 g/ha,100%
same,Viola tricolor (Efficacy in %),[17]; application rate 20 g/ha,100%
same,Abutilon theophrasti (Efficacy in %),[8]; application rate 20 g/ha,100%
same,Matricaria inodora (Efficacy in %),[9]; application rate 20 g/ha,100%
same,Polygonum convolvulus (Efficacy in %),[10]; application rate 20 g/ha,100%
same,Pharbitis purpurea (Efficacy in %),[11]; application rate 20 g/ha,100%
same,Digitaria sanguinalis (Efficacy in %),[12],100%
same,Setaria viridis (Efficacy in %),[13]; application rate 20 g/ha,100%
CC(Sc1cc(-n2c(=O)cc(C(F)(F)F)n(C)c2=O)c(F)cc1Cl)C(=O)OCC1CCCO1 (stereo not shown) [I.1-71],Triticum aestivum (Efficacy in %),[18]; application rate 80 g/ha,20%
same,Oryza sativa (Efficacy in %),[14],20%
same,Zea mays (Efficacy in %),[15]; application rate 80 g/ha,20%
same,Glycine max (Efficacy in %),[19]; application rate 20 g/ha,20%
same,Zea mays (Efficacy in %),[20],0%
same,Glycine max (Efficacy in %),[21],0%
same,Stellaria media (Efficacy in %),[2]; application rate 80 g/ha,100%
same,Echinochloa crus-galli (Efficacy in %),[4]; application rate 80 g/ha,100%
same,Veronica persica (Efficacy in %),[5]; application rate 80 g/ha,100%
same,Hordeum murinum (Efficacy in %),[6]; application rate 80 g/ha,80%
same,Amaranthus retroflexus (Efficacy in %),[7]; application rate 80 g/ha,100%
same,Viola tricolor (Efficacy in %),[17]; application rate 80 g/ha,100%
same,Abutilon theophrasti (Efficacy in %),[8]; application rate 80 g/ha,100%
same,Matricaria inodora (Efficacy in %),[9]; application rate 80 g/ha,100%
same,Polygonum convolvulus (Efficacy in %),[10]; application rate 80 g/ha,100%
same,Pharbitis purpurea (Efficacy in %),[11]; application rate 80 g/ha,100%
same,Setaria viridis (Efficacy in %),[13]; application rate 80 g/ha,100%
same,Avena fatua (Efficacy in %),[22],90%
same,Stellaria media (Efficacy in %),[23],100%
same,Alopecurus myosuroides (Efficacy in %),[24],100%
same,Lolium rigidum (Efficacy in %),[25],90%
same,Echinochloa crus-galli (Efficacy in %),[26],100%
same,Veronica persica (Efficacy in %),[27],100%
same,Hordeum murinum (Efficacy in %),[28],90%
same,Amaranthus retroflexus (Efficacy in %),[29],100%
same,Viola tricolor (Efficacy in %),[30],100%
same,Abutilon theophrasti (Efficacy in %),[31],100%
same,Cyperus esculentus (Efficacy in %),[32],80%
same,Matricaria inodora (Efficacy in %),[33],100%
same,Pharbitis purpurea (Efficacy in %),[34],100%
same,Setaria viridis (Efficacy in %),[35],100%
CON(C(=O)C(C)Sc1cc(-n2c(=O)cc(C(F)(F)F)n(C)c2=O)c(F)cc1Cl)C1CCOC1 (stereo not shown) [I.1-341],Triticum aestivum (Efficacy in %),[18]; application rate 20 g/ha,10%
same,Oryza sativa (Efficacy in %),[14],10%
same,Zea mays (Efficacy in %),[15]; application rate 20 g/ha,10%
same,Glycine max (Efficacy in %),[19]; application rate 25 g/ha,10%
same,Zea mays (Efficacy in %),[20],0%
same,Avena fatua (Efficacy in %),[1]; application rate 80 g/ha,90%
same,Stellaria media (Efficacy in %),[2]; application rate 80 g/ha,100%
same,Alopecurus myosuroides (Efficacy in %),[16]; application rate 80 g/ha,90%
same,Lolium rigidum (Efficacy in %),[3]; application rate 80 g/ha,100%
same,Echinochloa crus-galli (Efficacy in %),[4]; application rate 80 g/ha,100%
same,Veronica persica (Efficacy in %),[5]; application rate 80 g/ha,100%
same,Hordeum murinum (Efficacy in %),[6]; application rate 80 g/ha,90%
same,Amaranthus retroflexus (Efficacy in %),[7]; application rate 80 g/ha,100%
same,Viola tricolor (Efficacy in %),[17]; application rate 80 g/ha,100%
same,Abutilon theophrasti (Efficacy in %),[8]; application rate 80 g/ha,100%
same,Matricaria inodora (Efficacy in %),[9]; application rate 80 g/ha,100%
same,Polygonum convolvulus (Efficacy in %),[10]; application rate 80 g/ha,100%
same,Pharbitis purpurea (Efficacy in %),[11]; application rate 80 g/ha,100%
same,Setaria viridis (Efficacy in %),[13]; application rate 80 g/ha,100%
same,Avena fatua (Efficacy in %),[22],90%
same,Stellaria media (Efficacy in %),[23],100%
same,Alopecurus myosuroides (Efficacy in %),[24],90%
same,Lolium rigidum (Efficacy in %),[25],100%
same,Echinochloa crus-galli (Efficacy in %),[26],100%
same,Veronica persica (Efficacy in %),[27],100%
same,Hordeum murinum (Efficacy in %),[28],80%
same,Amaranthus retroflexus (Efficacy in %),[29],100%
same,Viola tricolor (Efficacy in %),[30],100%
same,Abutilon theophrasti (Efficacy in %),[31],100%
same,Matricaria inodora (Efficacy in %),[33],100%
same,Pharbitis purpurea (Efficacy in %),[34],100%
same,Setaria viridis (Efficacy in %),[35],100%
